# Laboratory results from patent US10947210B2 (priority 2015, dated 2021).
# Like-named read-outs stand apart in the source and are kept apart here.
# Key:
# [1] = molecular target: HCV RNA-dependent RNA polymerase (NS5B) (Hepatitis C virus genotype 1b (isolate BK) (HCV), UniProt P26663); assay: RNA-Dependent RNA HCV NS5B (polymerase) Assay and IC50 Determination; type: biochemical; settings: purified HCV NS5B polymerase, polyA:U16 substrate, 32P-UTP incorporation
# Summary of the method: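 Purified NS5B was incubated with 0.5 uM polyA:U16, 10 μM UTP plus ^32P-UTP in 50 mM Hepes-KOH pH 7.5, 5 mM MgCl2, 5 mM DTT, 2% glycerol and 0.01% Triton X-100. Inhibitor reactions ran 60 min at 37° C, and radiolabelled RNA product was quantified after filter capture. IC50 values were obtained from concentration series.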
# [2] = tested on: HCV subgenomic RNA replicon in Huh-luc/neo-ET cells; assay: HCV Replicon Assay and EC50 Determination; type: cell-based; settings: Hepatitis C virus, 72 hours, luciferase reporter activity
# Procedure: HCV Replicon Assay and EC50 Determination.
# HCV replicon assay is based on the luciferase reporter cell line (Huh-luc/neo-ET). This reporter cell line is a human liver carcinoma cell line (Huh-7) stably transfected with an autonomously replicating bicistronic HCV subgenomic RNA replicon (Lohmann et al., 1999, Science, 285, 110-113). Inhibition of HCV RNA replication was monitored through analysis of reporter luciferase activity. Briefly, HCV replicon cells were incubated with inhibitors for 72 hours at 37° C. After the incubation, duplicate plates were treated and incubated in parallel for assessment of cellular toxicity by XTT staining and anti-HCV activity by measurement of luciferase reporter activity. Either human interferon alpha 2B or ribavirin was used as a reference compound. EC50 values were determined using GraFit (Erithaus software) or Excel.
# Table 2 presents EC50 data obtained using this HCV replicaon assay to test representative compounds. Data are presented as follows: “+++” means <0.1 μM; “++” means ≥0.1 μM and <1.0 μM; “+” means ≥1.0 μM.
# HCV RNA-dependent RNA polymerase (NS5B), sequence (P26663 2420-3010): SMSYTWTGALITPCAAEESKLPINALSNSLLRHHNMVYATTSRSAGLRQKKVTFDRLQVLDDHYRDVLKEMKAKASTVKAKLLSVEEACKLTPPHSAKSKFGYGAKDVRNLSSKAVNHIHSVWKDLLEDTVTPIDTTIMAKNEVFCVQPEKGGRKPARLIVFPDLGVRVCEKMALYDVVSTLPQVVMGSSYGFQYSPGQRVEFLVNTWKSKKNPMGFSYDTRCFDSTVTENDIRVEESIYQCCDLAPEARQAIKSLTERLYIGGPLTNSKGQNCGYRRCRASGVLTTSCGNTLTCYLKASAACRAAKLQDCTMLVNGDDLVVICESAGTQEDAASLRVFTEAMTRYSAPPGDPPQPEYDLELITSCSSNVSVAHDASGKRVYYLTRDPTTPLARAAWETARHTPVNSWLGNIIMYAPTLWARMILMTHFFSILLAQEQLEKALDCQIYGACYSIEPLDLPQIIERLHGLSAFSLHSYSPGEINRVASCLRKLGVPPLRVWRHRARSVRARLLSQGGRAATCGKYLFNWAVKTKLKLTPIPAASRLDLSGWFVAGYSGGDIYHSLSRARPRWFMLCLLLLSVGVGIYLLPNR
Compound,IC50 ([1]; read-out: IC50) [µM],EC50 [2] [nM],IC50 ([1]; IC50 (μM)) [µM]
"CNC(=O)c1c(-c2ccc(F)cc2)oc2cc(N(CCOCCOCc3ccc(F)c(C(=O)O)c3)S(C)(=O)=O)c(C3CC3)cc12 [Compound 17A-8A, 5-[2-(2-{[5-Cyclopropyl-2-(4-fluoro-phenyl)-3-methylcarbamoyl-benzofuran-6-yl]-methanesulfonyl-amino}-ethoxy)-ethoxymethyl]-2-fluoro-benzoic Acid]",0.1 to 1,< 100,
"CNC(=O)c1c(-c2ccc(F)cc2)oc2cc(N(CCOCCOCc3ccc(OC)c(C(=O)O)c3)S(C)(=O)=O)c(C3CC3)cc12 [Compound 17B-8, 5-[2-(2-{[5-Cyclopropyl-2-(4-fluoro-phenyl)-3-methylcarbamoyl-benzofuran-6-yl]-methanesulfonyl-amino}-ethoxy)-ethoxymethyl]-2-methoxy-benzoic Acid]",0.1 to 1,100 to 1000,
"CNC(=O)c1c(-c2ccc(F)cc2)oc2cc(N(CCOCCCc3cccc(C(=O)/C=C(\O)C(=O)O)c3)S(C)(=O)=O)c(C3CC3)cc12 [Compound 22-12, 4-(3-(3-(2-(N-(5-cyclopropyl-2-(4-fluorophenyl)-3-(methylcarbamoyl)benzofuran-6-yl)methylsulfonamido)-ethoxy)-propyl)-phenyl)-2-hydroxy-4-oxobut-2-enoic Acid]",> 1,< 100,
"CNC(=O)c1c(-c2ccc(F)cc2)oc2cc(N(CCOCCOCCOCC(=O)O)S(C)(=O)=O)c(C3CC3)cc12 [Compound 23-6A, {2-[2-(2-{[5-Cyclopropyl-2-(4-fluoro-phenyl)-3-methylcarbamoyl-benzofuran-6-yl]-methanesulfonyl-amino}-ethoxy)-ethoxy]-ethoxy}-acetic Acid]",0.1 to 1,100 to 1000,
"CNC(=O)c1c(-c2ccc(F)cc2)oc2cc(N(CCOCCOCCOC(C)C(=O)O)S(C)(=O)=O)c(C3CC3)cc12 (centres unmarked) [Compound 23-6B, 2-{2-[2-(2-{[5-Cyclopropyl-2-(4-fluoro-phenyl)-3-methylcarbamoyl-benzofuran-6-yl]-methanesulfonyl-amino}-ethoxy)-ethoxy]-ethoxy}-propionic Acid]",0.1 to 1,< 100,
"CNC(=O)c1c(-c2ccc(F)cc2)oc2cc(N(CCOCCOCCOCC(=O)NO)S(C)(=O)=O)c(C3CC3)cc12 [Compound 23-6C, 5-Cyclopropyl-2-(4-fluoro-phenyl)-6-({2-[2-(2-hydroxycarbamoylmethoxy-ethoxy)-ethoxy]-ethyl}-methanesulfonyl-amino)-benzofuran-3-carboxylic Acid Methylamide]",,< 100,0.1 to 1
"CNC(=O)c1c(-c2ccc(F)cc2)oc2cc(N(CCOCCOCCOC(C(=O)O)c3ccccc3)S(C)(=O)=O)c(C3CC3)cc12 (centres unmarked) [Compound 25-5, {2-[2-(2-{[5-Cyclopropyl-2-(4-fluoro-phenyl)-3-methylcarbamoyl-benzofuran-6-yl]-methanesulfonyl-amino}-ethoxy)-ethoxy]-ethoxy}-phenyl-acetic Acid]",0.1 to 1,100 to 1000,
